Usually Ki stands for a measure of affinity in units of concentration, obtained from inhibition or displacement.

Molecules are shown by their SMILES. Some results are limits rather than exact numbers.

This passage reports Ki results from ChEMBL document CHEMBL3600366, “New 4-[(3-cyclohexyl-4-aryl-2,3-dihydro-1,3-thiazol-2-ylidene)amino]benzene-1-sulfonamides, synthesis and inhibitory activity toward carbonic anhydrase I, II, IX, XII” (Bioorg Med Chem Lett, 2015).

For one experiment, the target named is Carbonic anhydrase 1 (Homo sapiens, UniProt P00915). The experiment can be described thus: Inhibition of human carbonic anhydrase-1.
Sequence of Carbonic anhydrase 1 (P00915 whole entry): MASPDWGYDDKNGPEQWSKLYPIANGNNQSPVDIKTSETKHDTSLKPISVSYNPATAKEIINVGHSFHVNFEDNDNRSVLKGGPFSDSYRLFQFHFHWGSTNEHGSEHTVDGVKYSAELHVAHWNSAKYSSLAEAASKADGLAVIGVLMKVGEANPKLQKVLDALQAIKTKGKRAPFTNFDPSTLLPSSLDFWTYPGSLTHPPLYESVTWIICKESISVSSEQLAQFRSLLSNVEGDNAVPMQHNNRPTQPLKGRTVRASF
`NS(=O)(=O)c1ccc(/N=c2\scc(-c3ccc(Br)cc3)n2C2CCCCC2)cc1` returned a Ki above 10 µM.

For a further experiment, the target named is Carbonic anhydrase 9 (Homo sapiens, UniProt Q16790). As to the kind of experiment: Inhibition of human carbonic anhydrase-9.
Regarding `NS(=O)(=O)c1ccc(/N=c2\scc(-c3cccc([N+](=O)[O-])c3)n2C2CCCCC2)cc1`, the affinity corresponds to a Ki of 0.193 µM.

Consider `COc1ccc(-c2cs/c(=N\c3ccc(S(N)(=O)=O)cc3)n2C2CCCCC2)cc1`, for which the affinity corresponds to a Ki of 0.0165 µM.

As for `NS(=O)(=O)c1ccc(/N=c2\scc(-c3ccc(Cl)cc3Cl)n2C2CCCCC2)cc1`, the Ki amounted to 0.342 µM.

`Cc1ccc(-c2cs/c(=N\c3ccc(S(N)(=O)=O)cc3)n2C2CCCCC2)cc1` showed a Ki of 0.0227 µM.

The compound `NS(=O)(=O)c1ccc(/N=c2\scc(-c3ccc(Cl)cc3)n2C2CCCCC2)cc1` yielded a Ki of 0.353 µM.

`NS(=O)(=O)c1ccc(/N=c2\scc(-c3cccs3)n2C2CCCCC2)cc1` registered a Ki of 0.15 µM.

As to `N#Cc1ccc(-c2cs/c(=N\c3ccc(S(N)(=O)=O)cc3)n2C2CCCCC2)cc1`, the Ki worked out at 0.0295 µM.

On to `NS(=O)(=O)c1ccc(/N=c2\scc(-c3ccc(F)cc3F)n2C2CCCCC2)cc1`, for which the Ki came to 0.0855 µM.

`NS(=O)(=O)c1ccc(/N=c2\scc(-c3ccc(F)cc3)n2C2CCCCC2)cc1` came in with a Ki of 0.274 µM.

Consider `NS(=O)(=O)c1ccc(/N=c2\scc(-c3ccccc3)n2C2CCCCC2)cc1`, for which the Ki amounted to 0.354 µM.

With `NS(=O)(=O)c1ccc(/N=c2\scc(-c3ccc([N+](=O)[O-])cc3)n2C2CCCCC2)cc1`, the Ki stood at 0.0294 µM.

For `NS(=O)(=O)c1ccc(/N=c2\scc(-c3ccc(-c4ccccc4)cc3)n2C2CCCCC2)cc1`, the Ki came out at 0.0325 µM.
